This passage reports IC50, Ki and Kd results from patent US9388137B2, “Quaternized amines as sodium channel blockers” (Purdue Pharma L.P., priority 2011, dated 2016).

The structures appear in SMILES notation. Where only a bound is given, the exact number is not on record here.

For one test, the target named is human Nav1.7 (Homo sapiens (Human), UniProt Q15858). The experiment in a line: FLIPR sodium dye assay for sodium channel blocking activity. It counts as cell-based. The settings on record: recombinant Nav1.7/HEK293 cells.
A further test addresses hNav1.7 (Homo sapiens (Human), UniProt Q15858). The test is described as follows: Electrophysiology (EP) assay, whole-cell patch clamp. It counts as cell-based. The settings on record: hNav1.7 HEK-293 cells. In general terms: The patch-clamp technique gives a direct electrical read-out from membranes.

By IC50 is commonly meant the point on the concentration scale where inhibition reaches its midpoint.

Sequence of human Nav1.7 (Q15858 other isoform, or with tags, fused parts or gaps): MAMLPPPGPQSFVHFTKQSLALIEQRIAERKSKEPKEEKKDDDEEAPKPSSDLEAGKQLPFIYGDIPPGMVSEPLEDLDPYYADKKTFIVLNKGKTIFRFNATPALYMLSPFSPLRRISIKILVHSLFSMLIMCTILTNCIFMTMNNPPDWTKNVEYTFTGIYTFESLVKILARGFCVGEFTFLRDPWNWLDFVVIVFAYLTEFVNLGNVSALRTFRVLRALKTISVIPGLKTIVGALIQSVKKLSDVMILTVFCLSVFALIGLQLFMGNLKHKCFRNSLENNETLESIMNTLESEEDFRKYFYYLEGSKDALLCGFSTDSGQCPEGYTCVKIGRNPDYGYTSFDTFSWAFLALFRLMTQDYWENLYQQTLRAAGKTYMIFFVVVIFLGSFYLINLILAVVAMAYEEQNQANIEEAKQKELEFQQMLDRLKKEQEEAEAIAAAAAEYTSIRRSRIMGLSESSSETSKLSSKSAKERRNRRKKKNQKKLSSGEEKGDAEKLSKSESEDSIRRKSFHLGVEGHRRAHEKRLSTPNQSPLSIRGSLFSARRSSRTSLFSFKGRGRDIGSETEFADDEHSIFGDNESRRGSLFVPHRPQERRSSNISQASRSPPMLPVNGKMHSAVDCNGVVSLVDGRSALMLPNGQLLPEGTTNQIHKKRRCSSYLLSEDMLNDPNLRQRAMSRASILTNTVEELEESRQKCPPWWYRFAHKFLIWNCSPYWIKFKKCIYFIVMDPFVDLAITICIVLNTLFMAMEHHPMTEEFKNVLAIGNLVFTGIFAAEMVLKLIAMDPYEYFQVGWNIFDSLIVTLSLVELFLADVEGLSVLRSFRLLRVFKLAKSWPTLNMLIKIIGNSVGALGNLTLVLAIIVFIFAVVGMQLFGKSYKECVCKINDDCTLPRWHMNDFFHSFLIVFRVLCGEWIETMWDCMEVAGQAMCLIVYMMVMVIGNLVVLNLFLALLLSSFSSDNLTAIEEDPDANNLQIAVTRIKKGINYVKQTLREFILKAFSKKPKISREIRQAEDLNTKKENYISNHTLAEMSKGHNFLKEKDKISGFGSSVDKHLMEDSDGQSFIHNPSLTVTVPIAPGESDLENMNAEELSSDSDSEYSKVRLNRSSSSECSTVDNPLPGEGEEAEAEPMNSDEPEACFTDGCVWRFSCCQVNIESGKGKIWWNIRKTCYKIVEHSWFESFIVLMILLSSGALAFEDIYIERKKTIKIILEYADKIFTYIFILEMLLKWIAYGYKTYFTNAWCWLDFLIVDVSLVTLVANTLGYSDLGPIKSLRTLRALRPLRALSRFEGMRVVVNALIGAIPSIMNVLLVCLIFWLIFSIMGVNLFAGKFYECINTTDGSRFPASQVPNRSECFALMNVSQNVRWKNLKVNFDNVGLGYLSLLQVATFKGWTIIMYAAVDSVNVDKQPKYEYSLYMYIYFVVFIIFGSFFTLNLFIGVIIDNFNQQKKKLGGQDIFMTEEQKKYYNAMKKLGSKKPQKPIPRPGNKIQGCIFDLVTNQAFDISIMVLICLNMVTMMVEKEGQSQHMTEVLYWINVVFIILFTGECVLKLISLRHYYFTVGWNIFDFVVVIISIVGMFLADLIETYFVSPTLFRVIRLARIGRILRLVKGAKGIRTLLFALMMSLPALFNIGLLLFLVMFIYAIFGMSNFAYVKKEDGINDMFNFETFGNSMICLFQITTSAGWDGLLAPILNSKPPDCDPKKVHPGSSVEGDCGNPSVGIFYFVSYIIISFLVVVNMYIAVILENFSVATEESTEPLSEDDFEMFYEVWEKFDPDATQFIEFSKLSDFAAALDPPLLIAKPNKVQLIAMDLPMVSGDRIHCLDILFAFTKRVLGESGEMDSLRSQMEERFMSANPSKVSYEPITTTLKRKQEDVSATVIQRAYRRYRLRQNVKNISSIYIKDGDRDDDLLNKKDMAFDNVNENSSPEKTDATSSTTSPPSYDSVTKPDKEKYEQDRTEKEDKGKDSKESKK
Sequence of hNav1.7 (Q15858 other isoform, or with tags, fused parts or gaps): as above

Turning to `Cc1cc(C(=O)NCC[N+]2(C)CCCCC2)cc(-c2ccc(Oc3ccc(F)cc3)cc2)n1` [Example 1, 1-[2-({2-[4-(4-fluoro-phenoxy)-phenyl]-6-methyl-pyridine-4-carbonyl}-amino)-ethyl]-1-methyl-piperidinium], the 50% inhibitory concentration (IC50) on human Nav1.7 was 0.872 ± 0.255 µM. For the same compound, the Ki on hNav1.7 (affinity for the inactivated state of the channel, read-out: Nav1.7 Activity EP assay Ki) was 6.03 ± 0.91 µM. Besides, the Kd at hNav1.7 (dissociation constant for binding to the resting state of the channel, read-out: Nav1.7 Activity EP assay Kr) came to 125 ± 23.4 µM.

Regarding `Cc1cc(C(=O)NCC[N+]2(C)CCOCC2)cc(-c2ccc(Oc3ccc(F)cc3)cc2)n1` [Example 2, 4-[2-({2-[4-(4-fluoro-phenoxy)-phenyl]-6-methyl-pyridine-4-carbonyl}-amino)-ethyl]-4-methyl-morpholin-4-ium], the half-maximal inhibitory concentration (IC50) on human Nav1.7 worked out at 1.88 ± 0.287 µM. Consider `Cc1cc(C(=O)N2CCC([N+]3(C)CCCC3)CC2)cc(-c2ccc(Oc3ccc(F)cc3)cc2)n1` [Example 3, 1-(1-{2-[4-(4-fluoro-phenoxy)-phenyl]-6-methyl-pyridine-4-carbonyl}-piperidin-4-yl)-1-methyl-pyrrolidinium], for which, at human Nav1.7, the IC50 is above 20 µM. The same measure, in the same setting: as for `Cc1cc(C(=O)NCc2ccc([N+](C)(C)C)cc2)cc(-c2ccc(Oc3ccc(F)cc3)cc2)n1` [Example 4, {4-[({2-[4-(4-fluoro-phenoxy)-phenyl]-6-methyl-pyridine-4-carbonyl}-amino)-methyl]-phenyl}-trimethyl-ammonium], the figure is 3.99 ± 0.289 µM; as for `Cc1cc(C(=O)NCC[N+]2(C)CCCC2)cc(-c2ccc(Oc3ccc(F)cc3)cc2)n1` [Example 5, 1-[2-({2-[4-(4-fluoro-phenoxy)-phenyl]-6-methyl-pyridine-4-carbonyl}-amino)-ethyl]-1-methyl-pyrrolidinium], 2.9 ± 0.375 µM. On to `Cc1cc(C(=O)NCC[N+](C)(C)C)cc(-c2ccc(Oc3ccc(F)cc3)cc2)n1` [Example 6, [2-({2-[4-(4-fluoro-phenoxy)-phenyl]-6-methyl-pyridine-4-carbonyl}-amino)-ethyl]-trimethyl-ammonium], for which the 50% inhibitory concentration (IC50) at human Nav1.7 stood at 6.52 ± 0.466 µM.

Take `Cc1cc(C(=O)N2CC[N+](C)(C)CC2)cc(-c2ccc(Oc3ccc(F)cc3)cc2)n1` [Example 7, 4-{2-[4-(4-Fluoro-phenoxy)-phenyl]-6-methyl-pyridine-4-carbonyl}-1,1-dimethyl-piperazin-1-ium]: the IC50 on human Nav1.7 was above 20 µM. For the compound `Cc1cc(C(=O)N(C)C2CC[N+](C)(C)CC2)cc(-c2ccc(Oc3ccc(F)cc3)cc2)n1` [Example 8, 4-({2-[4-(4-Fluoro-phenoxy)-phenyl]-6-methyl-pyridine-4-carbonyl}-methyl-amino)-1,1-dimethyl-piperidinium], the IC50 on human Nav1.7 is above 20 µM.
